Article PMC11336974 (2024)

Test system: miR-193a-3p (RNA, miRNA) AACUGGCCUACAAAGUCCCAGU
Experiment: single-strand gel shift
Settings: 37 °C 30 min, 200 µM Trp; 15% native PAGE, 0.5x TBE

**Q.** Which binding does the source give for `N[C@@H](Cc1c[nH]c2ccccc12)C(=O)O` here?
**A.** The binding was “yes”.
